# Results from patent publication US20240066027A1 (DOMAIN THERAPEUTICS, priority 2020, published 2024).
# Target: T1, human PAR-2 (hPAR-2) receptor expressed in HEK-293 T cells in an endogenous manner (Homo sapiens, UniProt P55085)
# T1 construct: human PAR-2 (hPAR-2) receptor expressed in HEK-293 T cells in an endogenous manner; endogenous in cells; host or cells: HEK-293 T cells
# T1 sequence (P55085 26-397): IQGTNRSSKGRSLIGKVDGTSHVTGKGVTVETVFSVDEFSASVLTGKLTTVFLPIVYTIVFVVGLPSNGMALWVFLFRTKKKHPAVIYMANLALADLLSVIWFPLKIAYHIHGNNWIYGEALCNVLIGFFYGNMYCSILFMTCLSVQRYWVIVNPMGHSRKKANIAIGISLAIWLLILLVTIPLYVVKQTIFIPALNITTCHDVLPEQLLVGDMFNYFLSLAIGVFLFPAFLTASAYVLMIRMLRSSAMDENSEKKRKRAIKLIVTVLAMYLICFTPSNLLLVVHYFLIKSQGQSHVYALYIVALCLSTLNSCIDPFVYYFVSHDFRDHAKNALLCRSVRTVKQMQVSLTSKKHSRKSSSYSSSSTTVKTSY
# Experiment: In vitro human PAR-2 functional antagonist activity using calcium assays (Fluo4AM, FLIPR Tetra)
# Assay type: cell-based
# Conditions: HEK-293 T cells stimulated by an EC80 of the 2-Furoyl-LIGRLO-NH2 peptide after 10 min incubation with compound; 20 concentrations, duplicate, two independent experiments
# Summary of the method: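 Antagonist activity was taken as the decrease in the calcium response to an EC80 of 2-Furoyl-LIGRLO-NH2, measured over 5 min. The agonist was added after a 10 min compound-alone step on the same plate. The HEK-293 T cells express PAR-2 endogenously and were loaded with 1 μM Fluo4AM. Signals were referenced to buffer and EC80-alone controls.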
row,SMILES,IC50
1,"COC1CC(n2cc(-c3ccc(Cl)c(F)c3)c3ccc(C(=O)N4CCNC(=O)C4(C)C)nc32)C1 (stereo not shown) [Example 28, 4-(3-(4-chloro-3-fluorophenyl)-1-(3-methoxycyclobutyl)-1H-pyrrolo[2,3-b]pyridine-6-carbonyl)-3,3-dimethylpiperazin-2-one]",< 0.02 µM
2,"CC(C)(C)n1cc(-c2ccc(Cl)c(F)c2)c2ccc(C(=O)N3CCC4(CC3)CNC(=O)C4)nc21 [Example 14, 8-(1-(tert-butyl)-3-(4-chloro-3-fluorophenyl)-1H-pyrrolo[2,3-b]pyridine-6-carbonyl)-2,8-diazaspiro[4.5]decan-3-one]",0.02 to 10 µM
3,"CC(C)Cn1cc(-c2ccc(Cl)cc2)c2ccc(C(=O)N3CCNC(=O)C3(C)C)nc21 [Example 54, 4-[3-(4-chlorophenyl)-1-isobutyl-pyrrolo[2,3-b]pyridine-6-carbonyl]-3,3-dimethyl-piperazin-2-one]",0.02 to 10 µM
4,"CC(=O)c1cn(-c2ccc(Cl)c(F)c2)c2ccc(C(=O)N3CCC(CC(=O)O)CC3)cc12 [Example 206, 2-(1-(3-acetyl-1-(4-chloro-3-fluorophenyl)-1H-indole-5-carbonyl)piperidin-4-yl)acetic acid]",> 10 µM
5,"CC(C)(C)c1cn(-c2ccc(Cl)c(F)c2)c2ccc(C(=O)N3CCNC(=O)C3(C)C)nc12 [Example 221, 4-(3-(tert-butyl)-1-(4-chloro-3-fluorophenyl)-1H-pyrrolo[3,2-b]pyridine-5-carbonyl)-3,3-dimethylpiperazin-2-one]",< 0.02 µM
6,"CC(C)Cn1cc(-c2cccc(Cl)c2)c2ccc(C(=O)N3CCNC(=O)C3(C)C)nc21 [Example 50, 4-[3-(3-chlorophenyl)-1-isobutyl-pyrrolo[2,3-b]pyridine-6-carbonyl]-3,3-dimethyl-piperazin-2-one]",0.02 to 10 µM
7,"O=C(c1ccc2c(-c3ccc(Cl)c(F)c3)cn(CC(F)(F)F)c2n1)N1CC2CCC(C1)O2 [Example 33, (8-oxa-3-azabicyclo[3.2.1]octan-3-yl)(3-(4-chloro-3-fluorophenyl)-1-(2,2,2-trifluoroethyl)-1H-pyrrolo[2,3-b]pyridin-6-yl)methanone]",> 10 µM
8,"Cc1cc(NC2CCN(C(=O)c3ccc4c(-c5ccc(Cl)c(F)c5)cn(C(C)(C)C)c4n3)CC2C)nc(C)c1C(=O)O (stereo not shown) [Example 198, 6-((1-(1-(tert-butyl)-3-(4-chloro-3-fluorophenyl)-1H-pyrrolo[2,3-b]pyridine-6-carbonyl)-3-methylpiperidin-4-yl)amino)-2,4-dimethylnicotinic acid]",0.02 to 10 µM
9,"CC(C)Cc1nn(-c2ccc(Cl)c(F)c2)c2ccc(C(=O)N3CCC(C(=O)O)C(C)(C)C3)nc12 (stereo not shown) [Example 69, 1-(1-(4-chloro-3-fluorophenyl)-3-isobutyl-1H-pyrazolo[4,3-b]pyridine-5-carbonyl)-3,3-dimethylpiperidine-4-carboxylic acid]",> 10 µM
10,"CC1(C)C(=O)NCCN1C(=O)c1ccc2c(n1)c(C1CCOCC1)nn2-c1ccc(Cl)c(F)c1 [Example 72, 4-(1-(4-chloro-3-fluorophenyl)-3-(tetrahydro-2H-pyran-4-yl)-1H-pyrazolo[4,3-b]pyridine-5-carbonyl)-3,3-dimethylpiperazin-2-one]",0.02 to 10 µM
11,"CCOCCn1cc(-c2ccc(Cl)c(F)c2)c2ccc(C(=O)N3CCNC(=O)C3(C)C)nc21 [Example 42, 4-(3-(4-chloro-3-fluorophenyl)-1-(2-ethoxyethyl)-1H-pyrrolo[2,3-b]pyridine-6-carbonyl)-3,3-dimethylpiperazin-2-one]",0.02 to 10 µM
12,"Cc1cc(N2CCN(C(=O)c3ccc4c(-c5ccc(Cl)c(F)c5)cn(CC(C)C)c4n3)C(C)(C)C2)nc(C)c1C(=O)O [Example 95, 6-(4-(3-(4-chloro-3-fluorophenyl)-1-isobutyl-1H-pyrrolo[2,3-b]pyridine-6-carbonyl)-3,3-dimethylpiperazin-1-yl)-2,4-dimethylnicotinic acid]",< 0.02 µM
13,"CC1(C)C(=O)NCCN1C(=O)c1ccc2c(-c3ccc(Cl)c(F)c3)cn(CCn3cccn3)c2n1 [Example 61, 4-(1-(2-(1H-pyrazol-1-yl)ethyl)-3-(4-chloro-3-fluorophenyl)-1H-pyrrolo[2,3-b]pyridine-6-carbonyl)-3,3-dimethylpiperazin-2-one]",0.02 to 10 µM
14,"CC(C)(C)n1cc(-c2ccc(Cl)c(F)c2)c2ccc(C(=O)N3CCS(=O)(=O)CC3)nc21 [Example 214, (1-(tert-butyl)-3-(4-chloro-3-fluorophenyl)-1H-pyrrolo[2,3-b]pyridin-6-yl)(1,1-dioxidothiomorpholino)methanone]",0.02 to 10 µM
15,"CN(C)C(=O)CC1CCN(C(=O)c2ccc3c(-c4ccc(Cl)c(F)c4)cn(C(C)(C)C)c3n2)CC1 [Example 164, 2-(1-(1-(tert-butyl)-3-(4-chloro-3-fluorophenyl)-1H-pyrrolo[2,3-b]pyridine-6-carbonyl)piperidin-4-yl)-N,N-dimethylacetamide]",0.02 to 10 µM
16,"Cc1cc(N2CCN(C(=O)c3ccc4c(-c5ccc(Cl)c(F)c5)cn(C(C)(C)c5ccccn5)c4n3)C(C)(C)C2)nc(C)c1C(=O)O [Example 131, 6-(4-(3-(4-chloro-3-fluorophenyl)-1-(2-(pyridin-2-yl)propan-2-yl)-1H-pyrrolo[2,3-b]pyridine-6-carbonyl)-3,3-dimethylpiperazin-1-yl)-2,4-dimethylnicotinic acid]",< 0.02 µM
17,"CC1(C)CN(C(=O)c2ccc(C(=O)O)cn2)CCN1C(=O)c1ccc2c(-c3ccc(Cl)c(F)c3)cn(C(C)(C)C)c2n1 [Example 169, 6-(4-(1-(tert-butyl)-3-(4-chloro-3-fluorophenyl)-1H-pyrrolo[2,3-b]pyridine-6-carbonyl)-3,3-dimethylpiperazine-1-carbonyl)nicotinic acid]",0.02 to 10 µM
18,"CC(C)(C)n1cc(-c2ccc(Cl)c(F)c2)c2ccc(C(=O)N3CCC(Cn4cc(C(=O)O)cn4)CC3)nc21 [Example 187, 1-((1-(1-(tert-butyl)-3-(4-chloro-3-fluorophenyl)-1H-pyrrolo[2,3-b]pyridine-6-carbonyl)piperidin-4-yl)methyl)-1H-pyrazole-4-carboxylic acid]",0.02 to 10 µM
19,"CC1(C)C(=O)NCCN1C(=O)c1ccc2c(n1)c(C1CC1)nn2-c1ccc(Cl)c(F)c1 [Example 77, 4-(1-(4-chloro-3-fluorophenyl)-3-cyclopropyl-1H-pyrazolo[4,3-b]pyridine-5-carbonyl)-3,3-dimethylpiperazin-2-one]",0.02 to 10 µM
20,"CC(C)(C)n1cc(-c2ccc(Cl)c(F)c2)c2ccc(C(=O)N3CCC4(CCNC4=O)CC3)nc21 [Example 13, 8-(1-(tert-butyl)-3-(4-chloro-3-fluorophenyl)-1H-pyrrolo[2,3-b]pyridine-6-carbonyl)-2,8-diazaspiro[4.5]decan-1-one]",0.02 to 10 µM
21,"CC(C)(C)c1cn(-c2ccc(Cl)c(F)c2)c2ccc(C(=O)N3CCC(CC(=O)O)CC3)nc12 [Example 222, 2-(1-(3-(tert-butyl)-1-(4-chloro-3-fluorophenyl)-1H-pyrrolo[3,2-b]pyridine-5-carbonyl)piperidin-4-yl)acetic acid]",> 10 µM
22,"CC1(C)C(=O)NCCN1C(=O)c1ccc2c(-c3ccc(Cl)c(F)c3)cn(CCn3cncn3)c2n1 [Example 40, 4-(1-(2-(1H-1,2,4-triazol-1-yl)ethyl)-3-(4-chloro-3-fluorophenyl)-1H-pyrrolo[2,3-b]pyridine-6-carbonyl)-3,3-dimethylpiperazin-2-one]",0.02 to 10 µM
23,Cc1cc2c(nc1C(=O)N1CCNC(=O)C1(C)C)c(CC(C)C)nn2-c1ccc(Cl)c(F)c1 [Example 81],> 10 µM
24,"Cc1cc(N(C)[C@H]2CCN(C(=O)c3ccc4c(-c5ccc(Cl)c(F)c5)cn(C(C)(C)C)c4n3)C2)nc(C)c1C(=O)O [Example 156, (S)-6-((1-(1-(tert-butyl)-3-(4-chloro-3-fluorophenyl)-1H-pyrrolo[2,3-b]pyridine-6-carbonyl)pyrrolidin-3-yl)(methyl)amino)-2,4-dimethylnicotinic acid]",0.02 to 10 µM
25,"COC[C@H](C)n1cc(-c2ccc(Cl)c(F)c2)c2ccc(C(=O)N3CCN(c4cc(C)c(C(=O)O)c(C)n4)CC3(C)C)nc21 [Example 136, (S)-6-(4-(3-(4-chloro-3-fluorophenyl)-1-(1-methoxypropan-2-yl)-1H-pyrrolo[2,3-b]pyridine-6-carbonyl)-3,3-dimethylpiperazin-1-yl)-2,4-dimethylnicotinic acid]",< 0.02 µM
26,"CC(C)Cn1cc(-c2ccc(Cl)cc2Cl)c2ccc(C(=O)N3CCNC(=O)C3(C)C)nc21 [Example 84, 4-(3-(2,4-dichlorophenyl)-1-isobutyl-1H-pyrrolo[2,3-b]pyridine-6-carbonyl)-3,3-dimethylpiperazin-2-one]",0.02 to 10 µM
27,"CC(C)Cn1cc(-c2ccccc2Cl)c2ccc(C(=O)N3CCNC(=O)C3(C)C)nc21 [Example 53, 4-[3-(2-chlorophenyl)-1-isobutyl-pyrrolo[2,3-b]pyridine-6-carbonyl]-3,3-dimethyl-piperazin-2-one]",0.02 to 10 µM
28,"CC1(C)C(=O)N(CC(=O)O)CCN1C(=O)c1ccc2c(-c3ccc(Cl)c(F)c3)cn(C(C)(C)C)c2n1 [Example 4, 2-(4-(1-(tert-butyl)-3-(4-chloro-3-fluorophenyl)-1H-pyrrolo[2,3-b]pyridine-6-carbonyl)-3,3-dimethyl-2-oxopiperazin-1-yl)acetic acid]",0.02 to 10 µM
